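Tested at 5 concentrations; 48 h exposure; 96-well plates; endpoints linearly interpolated, else capped at highest concentration. GI50 is the concentration that inhibits growth by half.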 The source made the active and inactive calls. No stated cut-off is given here; in the data, active = GI50 up to about 1.1 µM and inactive = higher.
Key:
Assay in all cases: DTP human tumour cell line panel, 48 h
[1] = tested on: UO-31
[2] = tested on: RXF 393
[3] = tested on: A498
[4] = tested on: OVCAR-5
[5] = tested on: SN12C
[6] = tested on: MDA-MB-435
[7] = tested on: Malme-3M
[8] = tested on: NCI/ADR-RES
[9] = tested on: HCT-116
[10] = tested on: KM12
[11] = tested on: RPMI-8226
[12] = tested on: NCI-H23
[13] = tested on: SK-OV-3
[14] = tested on: HOP-92
[15] = tested on: HL-60
[16] = tested on: NCI-H226
[17] = tested on: ACHN
[18] = tested on: HCC 2998
[19] = tested on: SR
[20] = tested on: OVCAR-4

Compound	GI50 [1]	GI50 [2]	GI50 [3]	GI50 [4]	GI50 [5]	GI50 [6]	GI50 [7]	GI50 [8]	GI50 [9]	GI50 [10]	GI50 [11]	GI50 [12]	GI50 [13]	GI50 [14]	GI50 [15]	GI50 [16]	GI50 [17]	GI50 [18]	GI50 [19]	GI50 [20]
CCn1cc(C(=O)O)c(=O)c2cc(F)c(N3CCN(CN4C(=O)/C(=N\c5ncc(Cc6cc(OC)c(OC)c(OC)c6)c(N)n5)c5cc(Cl)ccc54)CC3)cc21	> 100 µM (inactive)	> 100 µM (inactive)	> 100 µM (inactive)	> 100 µM (inactive)	> 100 µM (inactive)	33.3 µM (inactive)	> 100 µM (inactive)	> 100 µM (inactive)	74.3 µM (inactive)	50.2 µM (inactive)	0.0399 µM (active)	> 100 µM (inactive)	> 100 µM (inactive)	> 100 µM (inactive)	20 µM (inactive)	> 100 µM (inactive)	> 100 µM (inactive)	42.2 µM (inactive)	41.4 µM (inactive)	> 100 µM (inactive)
CC(C)S(=O)(=O)ON1C(=O)c2ccc(N(C)C)cc2C1=O	18.2 µM (inactive)	13.2 µM (inactive)	> 43.7 µM (inactive)	18.8 µM (inactive)	16.9 µM (inactive)	2.04 µM (inactive)	2.93 µM (inactive)	5.4 µM (inactive)	14.8 µM (inactive)	21.4 µM (inactive)	2.58 µM (inactive)	27.7 µM (inactive)	> 50.7 µM (inactive)	7.35 µM (inactive)	3.41 µM (inactive)	25.2 µM (inactive)	15.6 µM (inactive)	13.3 µM (inactive)	2.38 µM (inactive)	17.7 µM (inactive)
CC1(C)C2CCC1(CS(=O)(=O)Nc1ccccc1)C(=O)C2 (stereo not given)	75.9 µM (inactive)	> 100 µM (inactive)	> 100 µM (inactive)	> 100 µM (inactive)	> 100 µM (inactive)	> 100 µM (inactive)	> 100 µM (inactive)	> 100 µM (inactive)	> 100 µM (inactive)	> 100 µM (inactive)	> 100 µM (inactive)	> 100 µM (inactive)	> 100 µM (inactive)	> 100 µM (inactive)	> 100 µM (inactive)	> 100 µM (inactive)	> 100 µM (inactive)	> 100 µM (inactive)	35.5 µM (inactive)	> 100 µM (inactive)
CSc1cc(N)ccc1/N=N/c1ccc(S(N)(=O)=O)cc1	16.5 µM (inactive)	30.5 µM (inactive)	48 µM (inactive)	45 µM (inactive)	27.5 µM (inactive)	27.4 µM (inactive)	24.7 µM (inactive)	29.6 µM (inactive)	30.5 µM (inactive)	30.4 µM (inactive)	16.4 µM (inactive)	33.4 µM (inactive)	35.8 µM (inactive)	21.8 µM (inactive)	25.1 µM (inactive)	13.2 µM (inactive)	27.2 µM (inactive)	53.6 µM (inactive)	34.6 µM (inactive)	27.5 µM (inactive)
O=C1c2ccccc2-c2c1c1ccccc1c(=O)n2-c1ccccc1	5.64 µM (inactive)	4.59 µM (inactive)	16.6 µM (inactive)	45.5 µM (inactive)	16.4 µM (inactive)	> 100 µM (inactive)	> 62.5 µM (inactive)	5.48 µM (inactive)	4.17 µM (inactive)	14.6 µM (inactive)	> 100 µM (inactive)	11.6 µM (inactive)	13.2 µM (inactive)	26.9 µM (inactive)	> 33 µM (inactive)	12.2 µM (inactive)	5.09 µM (inactive)	66.4 µM (inactive)	> 100 µM (inactive)	2.86 µM (inactive)
COc1ccccc1C1c2cc3c(cc2OC2(OC)COC(=O)C12)OCO3 (stereo not given)	14.6 µM (inactive)	12.3 µM (inactive)	6.59 µM (inactive)	44.1 µM (inactive)	18.7 µM (inactive)	2.27 µM (inactive)	15.2 µM (inactive)	6.55 µM (inactive)	6.98 µM (inactive)	4.92 µM (inactive)	8.07 µM (inactive)	29.2 µM (inactive)	18.8 µM (inactive)	40.4 µM (inactive)	3.03 µM (inactive)	34.8 µM (inactive)	22.2 µM (inactive)	14.9 µM (inactive)	3.8 µM (inactive)	19.1 µM (inactive)
CC[C@@]1(O)C(=O)OCc2c1cc1n(c2=O)Cc2c-1nc1ccccc1c2/C=N\NC(=O)C(N)CS (stereo not given in full)	0.989 µM (active)	1.8 µM (inactive)	2.55 µM (inactive)	17.3 µM (inactive)	0.116 µM (active)	5.36 µM (inactive)	9.59 µM (inactive)	1.71 µM (inactive)	1.7 µM (inactive)	24.8 µM (inactive)	1.32 µM (inactive)	0.733 µM (active)	1.91 µM (inactive)	3.13 µM (inactive)	0.346 µM (active)	1.66 µM (inactive)	0.262 µM (active)	9.46 µM (inactive)	0.0373 µM (active)	53.2 µM (inactive)
CCOC(=O)/C=C\[C@H]1OC(C)(C)O[C@H]1[C@H](O)[C@H]1COC(C)(C)O1	18.4 µM (inactive)	20 µM (inactive)	16.6 µM (inactive)	17.1 µM (inactive)	17.4 µM (inactive)	17.3 µM (inactive)	18.9 µM (inactive)	32.5 µM (inactive)	19.7 µM (inactive)	77.3 µM (inactive)	19.8 µM (inactive)	21.7 µM (inactive)	> 100 µM (inactive)	13.2 µM (inactive)	22.8 µM (inactive)	> 100 µM (inactive)	16.3 µM (inactive)	11.3 µM (inactive)	17.1 µM (inactive)	19.3 µM (inactive)
CC(=O)Nc1cc(/C=C\C(=O)N2CC(CCl)c3c2cc(N)c2ccccc32)n(C)n1 (stereo not given)	0.00284 µM (active)	< 0.001 µM (active)	0.00373 µM (active)	0.0215 µM (active)	< 0.001 µM (active)	0.0169 µM (active)	0.012 µM (active)	0.0216 µM (active)	0.00149 µM (active)	0.0167 µM (active)	0.0179 µM (active)	0.00192 µM (active)	0.0163 µM (active)	0.0194 µM (active)	< 0.001 µM (active)	0.00805 µM (active)	< 0.001 µM (active)	0.0148 µM (active)	< 0.001 µM (active)	0.017 µM (active)
CCCCCC(=O)OC[n+]1ccc2c(C)c3[nH]c4ccc(OC)cc4c3c(C)c2c1	0.625 µM (active)	0.208 µM (active)	1.07 µM (active)	0.556 µM (active)	0.117 µM (active)	0.499 µM (active)	1.37 µM (inactive)	0.213 µM (active)	0.0482 µM (active)	0.225 µM (active)	0.0619 µM (active)	0.361 µM (active)	0.628 µM (active)	1.2 µM (inactive)	0.241 µM (active)	0.276 µM (active)	0.106 µM (active)	0.543 µM (active)	0.0498 µM (active)	0.811 µM (active)
c1ccc(C2C3=C(CCCC3)Nc3nc4cc5ccccc5cc4n32)cc1 (stereo not given)	> 100 µM (inactive)	> 100 µM (inactive)	> 100 µM (inactive)	> 100 µM (inactive)	> 100 µM (inactive)	> 100 µM (inactive)	> 100 µM (inactive)	> 100 µM (inactive)	> 100 µM (inactive)	> 100 µM (inactive)	> 100 µM (inactive)	> 100 µM (inactive)	> 100 µM (inactive)	> 100 µM (inactive)	> 100 µM (inactive)	> 100 µM (inactive)	> 100 µM (inactive)	> 100 µM (inactive)	> 100 µM (inactive)	> 100 µM (inactive)
O=C1C=CC(=O)c2c(O)c(N(CCCl)CCCl)c(Cl)c(O)c21	> 5.75 µM (inactive)	> 5.2 µM (inactive)	6.15 µM (inactive)	> 7.21 µM (inactive)	> 6.68 µM (inactive)	4.31 µM (inactive)	4.37 µM (inactive)	6.89 µM (inactive)	4.26 µM (inactive)	6.4 µM (inactive)	> 8.39 µM (inactive)	5.07 µM (inactive)	> 10 µM (inactive)	2.98 µM (inactive)	> 6.05 µM (inactive)	> 9.66 µM (inactive)	4.13 µM (inactive)	> 8.91 µM (inactive)	4.51 µM (inactive)	4.49 µM (inactive)
CC1(C)[C@@H]2C[C@H]1c1cnc(-c3ccccn3)cc1C2[C@@H]1c2cc(-c3ccccn3)ncc2[C@@H]2C[C@H]1C2(C)C (stereo not given in full)	24.3 µM (inactive)	> 100 µM (inactive)	39.9 µM (inactive)	> 100 µM (inactive)	97.5 µM (inactive)	76 µM (inactive)	58.9 µM (inactive)	37.7 µM (inactive)	49 µM (inactive)	33.3 µM (inactive)	31.7 µM (inactive)	41.2 µM (inactive)	73.6 µM (inactive)	> 100 µM (inactive)	36.4 µM (inactive)	28.4 µM (inactive)	40.5 µM (inactive)	45.7 µM (inactive)	62.8 µM (inactive)	20.6 µM (inactive)
CC(C)OC(=O)c1cc(NC(=S)OC(C)C)ccc1Cl	20.8 µM (inactive)	22.3 µM (inactive)	25.9 µM (inactive)	25.1 µM (inactive)	13.4 µM (inactive)	17.1 µM (inactive)	33.6 µM (inactive)	20.7 µM (inactive)	20.8 µM (inactive)	13.8 µM (inactive)	24.6 µM (inactive)	20.5 µM (inactive)	37 µM (inactive)	18.4 µM (inactive)	16.3 µM (inactive)	18.3 µM (inactive)	22.8 µM (inactive)	> 41.6 µM (inactive)	28.6 µM (inactive)	23.9 µM (inactive)

From ChEMBL document CHEMBL1201862, “PubChem BioAssay data set” (2004)
